Measured values taken from patent publication US10919841B2, “Monoamine reuptake inhibitors” (Research Triangle Institute, priority 2009, dated 2021).
Entries after “also recorded” stand apart in the source; their conditions may differ. Where two headings read alike, the source gives them in different places.

What was measured:
[1] = target: serotonin transporter (Rattus norvegicus, UniProt P31652); assay: 5-HT releasing/substrate activity using rat brain synaptosomes
[2] = target: T1, (h)DAT (Homo sapiens, UniProt Q01959); assay: block of [3H]dopamine reuptake in HEK-(h)DAT cells; format: cell-based
T1 construct: expressed in transfected cells
T1 sequence (Q01959 whole entry): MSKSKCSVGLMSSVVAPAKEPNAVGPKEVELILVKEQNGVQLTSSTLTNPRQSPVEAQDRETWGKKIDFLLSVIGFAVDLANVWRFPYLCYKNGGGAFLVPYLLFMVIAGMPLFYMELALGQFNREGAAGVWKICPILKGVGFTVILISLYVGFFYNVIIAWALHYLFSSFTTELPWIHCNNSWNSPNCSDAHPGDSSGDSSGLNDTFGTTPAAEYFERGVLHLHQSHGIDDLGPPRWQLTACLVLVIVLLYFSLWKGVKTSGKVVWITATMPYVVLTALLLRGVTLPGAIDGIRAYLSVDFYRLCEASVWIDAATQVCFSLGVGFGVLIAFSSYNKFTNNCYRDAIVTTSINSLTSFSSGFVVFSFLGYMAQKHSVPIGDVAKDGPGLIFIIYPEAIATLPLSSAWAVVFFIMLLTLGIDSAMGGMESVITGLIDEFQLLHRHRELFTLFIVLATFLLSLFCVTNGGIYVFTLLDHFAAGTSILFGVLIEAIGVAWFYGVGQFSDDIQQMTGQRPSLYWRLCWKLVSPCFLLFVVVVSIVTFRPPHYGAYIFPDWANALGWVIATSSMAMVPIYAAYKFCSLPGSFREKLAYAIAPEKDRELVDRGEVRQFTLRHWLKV

[3] = target: T1, (h)DAT; assay: competition binding with [125I]RTI-55 at (h)DAT stably expressed in HEK293 cells; settings: mean ± standard error of three independent experiments
[4] = target: T2, (h)SERT (Homo sapiens, UniProt P31645); assay: block of [3H]serotonin reuptake in HEK-(h)SERT cells; format: cell-based
T2 construct: expressed in transfected cells; host or cells: HEK293
T2 sequence (P31645 whole entry): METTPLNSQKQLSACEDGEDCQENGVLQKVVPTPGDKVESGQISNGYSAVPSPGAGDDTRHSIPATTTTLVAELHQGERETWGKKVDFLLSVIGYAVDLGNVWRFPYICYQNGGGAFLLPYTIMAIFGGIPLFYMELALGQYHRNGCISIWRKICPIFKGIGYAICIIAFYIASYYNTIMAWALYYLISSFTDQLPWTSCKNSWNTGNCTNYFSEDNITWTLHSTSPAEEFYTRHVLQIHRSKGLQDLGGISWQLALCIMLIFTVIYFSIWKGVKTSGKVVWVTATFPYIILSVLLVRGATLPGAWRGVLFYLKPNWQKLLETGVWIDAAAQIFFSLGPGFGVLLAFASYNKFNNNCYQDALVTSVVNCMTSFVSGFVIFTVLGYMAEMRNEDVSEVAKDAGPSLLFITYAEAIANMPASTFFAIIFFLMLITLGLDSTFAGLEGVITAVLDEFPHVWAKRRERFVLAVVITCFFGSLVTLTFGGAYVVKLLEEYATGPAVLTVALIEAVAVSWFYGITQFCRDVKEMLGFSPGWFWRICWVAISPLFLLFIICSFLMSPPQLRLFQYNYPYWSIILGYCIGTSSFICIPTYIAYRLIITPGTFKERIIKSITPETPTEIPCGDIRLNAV

[5] = target: T2, (h)SERT; settings: read-out: Binding, Ki SERT
[6] = target: T3, (h)NET (Homo sapiens, UniProt P23975); assay: competition binding with [125I]RTI-55 at (h)NET stably expressed in HEK293 cells; settings: read-out: Binding, Ki NET; mean ± standard error of three independent experiments
T3 sequence (P23975 whole entry): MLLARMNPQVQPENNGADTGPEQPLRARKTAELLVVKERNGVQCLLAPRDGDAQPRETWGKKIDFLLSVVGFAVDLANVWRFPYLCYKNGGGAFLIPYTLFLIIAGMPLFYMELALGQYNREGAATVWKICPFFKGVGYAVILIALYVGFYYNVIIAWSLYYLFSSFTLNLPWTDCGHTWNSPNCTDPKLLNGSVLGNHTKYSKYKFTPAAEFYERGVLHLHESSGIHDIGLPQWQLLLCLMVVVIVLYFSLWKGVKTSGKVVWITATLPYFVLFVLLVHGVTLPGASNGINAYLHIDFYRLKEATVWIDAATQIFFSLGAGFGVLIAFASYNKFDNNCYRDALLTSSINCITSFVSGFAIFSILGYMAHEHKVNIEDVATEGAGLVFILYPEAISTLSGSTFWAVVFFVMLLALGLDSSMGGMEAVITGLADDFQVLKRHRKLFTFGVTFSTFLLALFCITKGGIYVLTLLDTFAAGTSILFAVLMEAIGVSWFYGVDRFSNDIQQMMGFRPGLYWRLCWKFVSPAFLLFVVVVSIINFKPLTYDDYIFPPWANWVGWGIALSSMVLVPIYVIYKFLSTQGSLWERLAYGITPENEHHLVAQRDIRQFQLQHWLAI

[7] = test system: rats; assay: cocaine discrimination (2-lever operant), i.p. administration; settings: for responders at 5 mg/kg / responders at 10 mg/kg / responders at 25 mg/kg / ED50 / responders at 50 mg/kg / responders at 100 mg/kg: Rattus norvegicus, ip; for responders at 5 mg/kg / responders at 10 mg/kg / responders at 25 mg/kg / responders at 50 mg/kg / responders at 100 mg/kg: read-out: % cocaine lever responding; for ED50: read-out: Full Generalization ED50
[8] = test system: mice; assay: locomotor activity, 8-h time course protocol; format: in vivo; settings: for locomotor stimulant activity across the 1-h and 8-h protocols, in words: 1-h and 8-h tests compared; for Emax / ED50: Mus musculus; for Emax: read-out: Locomotor Activity 8-Hour % Peak Cocaine, percent of cocaine's maximal effect, 30 min period of maximum stimulation; for ED50: read-out: Locomotor Activity 8-Hour ED50; for Locomotor Activity 8-Hour Time, min Period, length: duration of locomotor activity; for Locomotor Activity 8-Hour Time, min Period, max: time period of maximum effect
[9] = test system: mice; assay: locomotor activity, 1-h observation protocol; format: in vivo; settings: for Emax / ED50: Mus musculus; for Emax: 0.5 h, read-out: Locomotor Activity 1-Hour % Peak Cocaine; for ED50 / Locomotor Activity 1-Hour ED50: dose to produce 50% of the compound's maximal effect, 1-h
[10] = target: T3, (h)NET; assay: block of [3H]norepinephrine reuptake in HEK-(h)NET cells; settings: for times better as NE uptake inhibitors than bupropion: relative to bupropion
[11] = test system: rats; assay: cocaine discrimination time-course study, oral administration; settings: for ED50: Rattus norvegicus, po, 0.75 h; for generalization to cocaine: p.o.
[12] = mean ± standard error of three independent experiments, read-out: Uptake, IC50 [3H]DA
[13] = mean ± standard error of three independent experiments
[14] = dose to produce 50% of the compound's maximal effect, 8-h
[15] = read-out: IC50 for NE uptake inhibition, [3H]NE
[16] = read-out: Uptake, IC50 [3H]5-HT
[17] = [3H]DA, read-out: IC50 for DA uptake inhibition

serotonin transporter, sequence (P31652 whole entry): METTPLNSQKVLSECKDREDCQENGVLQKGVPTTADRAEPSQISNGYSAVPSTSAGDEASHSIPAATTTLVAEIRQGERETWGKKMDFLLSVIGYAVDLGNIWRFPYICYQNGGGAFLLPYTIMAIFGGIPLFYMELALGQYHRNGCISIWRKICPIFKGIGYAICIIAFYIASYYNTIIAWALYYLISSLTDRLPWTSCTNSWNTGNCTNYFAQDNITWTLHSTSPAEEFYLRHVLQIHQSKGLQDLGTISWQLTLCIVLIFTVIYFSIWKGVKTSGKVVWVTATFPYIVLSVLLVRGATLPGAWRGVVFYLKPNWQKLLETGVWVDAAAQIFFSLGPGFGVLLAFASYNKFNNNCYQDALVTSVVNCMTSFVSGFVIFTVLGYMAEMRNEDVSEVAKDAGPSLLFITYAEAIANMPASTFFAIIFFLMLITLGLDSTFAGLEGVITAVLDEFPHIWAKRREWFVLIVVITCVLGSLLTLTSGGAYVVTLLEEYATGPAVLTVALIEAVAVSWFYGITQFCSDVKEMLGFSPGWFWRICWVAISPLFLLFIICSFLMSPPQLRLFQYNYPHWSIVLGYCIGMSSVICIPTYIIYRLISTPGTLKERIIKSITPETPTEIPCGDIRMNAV

`CC(NC1CC1)C(=O)c1cccc(Br)c1` (centres unmarked) gave an EC50 [1] of 383 ± 56 nM.

With `Cc1cccc(C(=O)C(C)NC2CC2)c1` (centres unmarked) the EC50 [1] was 890 ± 63 nM.

Compound `COc1cccc(C(=O)C(C)NC2CC2)c1` (centres unmarked) has an EC50 [1] of 676 ± 197 nM.

With `CC(NC1CC1)C(=O)c1ccc(Cl)cc1` (centres unmarked) the EC50 [1] was 2700 ± 314 nM.

With `Cc1ccc(C(=O)C(C)NC2CC2)cc1` (centres unmarked) the EC50 [1] was 707 ± 69 nM.

`CC(NC1CC1)C(=O)c1ccc(Cl)c(Cl)c1` (centres unmarked) was tested, and the EC50 [1] was 148 ± 35 nM.

With `Cc1ccc(C(=O)C(C)NC2CC2)cc1Cl` (centres unmarked) the EC50 [1] was 139 ± 30 nM.

For `CCC(NC(C)(C)C)C(=O)c1ccc(Cl)c(Cl)c1` (centres unmarked) [Compound 2aa, 2-(tert-Butylamino)-3′,4′-dichlorobutyrophenone], the “DA uptake inhibition, in words” value [2] was “slightly lower IC50 values than 2j”, the IC50 [2, 12] was 0.175 µM and the Ki [3] was 278 nM. For the same compound, the IC50 ([4]; mean ± standard error of three independent experiments, read-out: Uptake, IC50 [3H]5-HT) was 0.79 µM, the Ki [5, 13] was 860 nM and the Ki [6] was 2240 nM. For the same compound, the responders at 5 mg/kg [7] was 1%, the responders at 10 mg/kg [7] was 10% and the responders at 25 mg/kg [7] was 10%. For the same compound, the ED50 [7] was 15 mg/kg, the “locomotor stimulant activity across the 1-h and 8-h protocols, in words” value [8] was “weak stimulants in both tests; also recorded: moderate activity in the 1-h test with increased activity in the time-course study” and the Emax [8] was 84%. For the same compound, the ED50 [8, 14] was 42.2 mg/kg, the “Locomotor Activity 8-Hour Time, min Period, length” value [8] was 60 min and the “Locomotor Activity 8-Hour Time, min Period, max” value [8] was 0 to 30 min. It also gave an Emax [9] of 41%, an ED50 [9] of 50.3 mg/kg and an IC50 [10, 15] of 0.135 µM. For the same compound, the “times better as NE uptake inhibitors than bupropion” value [10] was 10 times.

For `CCCC(NC(C)(C)C)C(=O)c1ccc(Cl)c(Cl)c1` (centres unmarked) [Compound 2bb, 2-(tert-Butylamino)-3′,4′-dichloropentanophenone], the “DA uptake inhibition, in words” value [2] was “slightly lower IC50 values than 2j”, the IC50 [2, 12] was 0.084 µM and the Ki [3] was 43.7 nM. For the same compound, the IC50 [4, 16] was 1.58 µM, the Ki [5] was 842 nM and the Ki [6] was 520 nM. The responders at 5 mg/kg [7] was 1%, the responders at 10 mg/kg [7] was 17% and the responders at 25 mg/kg [7] was 10%. For the same compound, the ED50 [7] was 6.95 mg/kg, the ED50 [11] was 17.3 mg/kg and the “locomotor stimulant activity across the 1-h and 8-h protocols, in words” value [8] was “moderate activity in the 1-h test with increased activity in the time-course study”. For the same compound, the Emax [8] was 100%, the ED50 [8, 14] was 35 mg/kg and the “Locomotor Activity 8-Hour Time, min Period, length” value [8] was 470 min. The “Locomotor Activity 8-Hour Time, min Period, max” value [8] was 0 to 30 min, the Emax [9] was 49% and the ED50 [9] was 18.1 mg/kg. For the same compound, the IC50 [10, 15] was 0.043 µM and the “times better as NE uptake inhibitors than bupropion” value [10] was 34 times.

In the case of `CC(C(=O)c1cccc(Cl)c1)N1CCCCC1` (centres unmarked) [Compound 2ff, 2-Piperidino-3′-chloropropiophenone], the IC50 [2, 17] is reported as 1.03 µM, the Ki [3] is reported as 1150 nM and the IC50 [4, 16] is reported as 0.97 µM. The Ki [5] was 5480 nM, the Ki [6] was 4760 nM and the responders at 10 mg/kg [7] was 6%. For the same compound, the responders at 25 mg/kg [7] was 17%, the responders at 50 mg/kg [7] was 33% and the responders at 100 mg/kg [7] was 34%. The “locomotor stimulant activity across the 1-h and 8-h protocols, in words” value [8] was “inactive in the 1-h test but showed weak stimulant activity in the 8-h protocol”, the Emax [8] was 45% and the ED50 [8, 14] was 15 mg/kg. The “Locomotor Activity 8-Hour Time, min Period, length” value [8] was 470 min, the “onset and duration of locomotor activity, in words” value ([8]; mouse, in vivo) was “very slow onset of stimulatory activity” and the “Locomotor Activity 1-Hour ED50” value [9] was “NE^f”. For the same compound, the IC50 ([10]; read-out: Uptake, IC50 [3H]NE, mean ± standard error of three independent experiments) was 4.8 µM.

`CC(C)(C)NC(CCC1CCCCC1)C(=O)c1cccc(Cl)c1` (centres unmarked) [Compound 2u, 2-(N-tert-Butylamino)-3′-chlorophenyl-4-cyclohexylbutanophenone] was tested, and the IC50 [2, 17] was over 10 µM, the IC50 ([2]; bound given in μM, read-out: Uptake, IC50 [3H]DA) was over 10 µM and the Ki [3] was 1700 nM. For the same compound, the IC50 ([4]; bound given in μM, read-out: Uptake, IC50 [3H]5-HT) was over 10 µM, the Ki [5, 13] was 6200 nM and the Ki [6] was 3800 nM. The “% cocaine lever responding” value ([7]; rats, IP, dose 5 mg/kg) was 0%, the “% cocaine lever responding” value ([7]; rats, IP, dose 10 mg/kg) was 0% and the “% cocaine lever responding” value ([7]; rats, IP, dose 25 mg/kg) was 70%. For the same compound, the “Comments (response rate)” value ([7]; rats, IP, response rate relative to vehicle control) was “B^b”, the “locomotor stimulant activity across the 1-h and 8-h protocols, in words” value [8] was “inactive in the 1-h test but showed weak stimulant activity in the 8-h protocol” and the “Locomotor Activity 8-Hour ED50” value [8, 14] was 15.3 mg/kg. For the same compound, the “Locomotor Activity 8-Hour Time, min Period, length” value [8] was 60 to 160 min, the “Locomotor Activity 8-Hour % Peak Cocaine” value ([8]; percent of cocaine's maximal effect, 30 min period of maximum stimulation) was 47% and the “Locomotor Activity 8-Hour Time, min Period, max” value [8] was 60 to 90 min. The “Locomotor Activity 1-Hour ED50” value [9] was “NE^f” and the IC50 ([10]; read-out: Uptake, IC50 [3H]NE, bound given in μM) was over 10 µM.

For `CC(NC1CC1)C(=O)c1cccc(Cl)c1` (centres unmarked) [Compound 2x, 2-(N-Cyclopropylamino)-3′-chloropropiophenone], the IC50 [2, 17] was 0.265 µM, the “times more potent than bupropion as DA uptake inhibitor” value ([2]; relative to bupropion) was 3.6 times and the Ki [3] was 1150 nM. For the same compound, the IC50 ([4]; read-out: IC50 for 5HT uptake inhibition) was 3.18 µM, the Ki [5] was 3420 nM and the Ki [6] was 4000 nM. For the same compound, the responders at 5 mg/kg [7] was 6%, the responders at 10 mg/kg [7] was 67% and the responders at 25 mg/kg [7] was 34%. The responders at 50 mg/kg [7] was 17%, the responders at 100 mg/kg [7] was 17% and the “cocaine-appropriate responding (partial generalization)” value ([7]; i.p., 5 mg/kg) was 67%. For the same compound, the cocaine-appropriate responding ([7]; i.p., 10 mg/kg) was 67%, the “response rate, in words” value ([7]; i.p., dose range given in the value) was “affected response rate at 25-100 mg/kg” and the ED50 [11] was 13.3 mg/kg. For the same compound, the generalization to cocaine ([11]; 45 min, 10 mg/kg) was “partial generalization”, the generalization to cocaine ([11]; 45 min, 25 mg/kg) was “partial generalization” and the generalization to cocaine ([11]; 90 min, 25 mg/kg) was “full generalization”. For the same compound, the generalization to cocaine ([11]; 180 min, 25 mg/kg) was “full generalization”, the “locomotor stimulant activity across the 1-h and 8-h protocols, in words” value [8] was “strong stimulants in both studies” and the Emax [8] was 94%. For the same compound, the ED50 [8, 14] was 14.7 mg/kg, the “Locomotor Activity 8-Hour Time, min Period, length” value [8] was 350 min and the “Locomotor Activity 8-Hour Time, min Period, max” value [8] was 0 to 30 min. It also gave an Emax [9] of 94%, an ED50 [9] of 14.7 mg/kg and an IC50 [10, 15] of 2.15 µM. For the same compound, the EC50 [1] was 283 nM.
